The results in this text go back to patent US20240217983A1, “GPR119 AGONISTS” (Kallyope, Inc., priority 2021, published 2024).

This assay addresses T1, human GPR119 (hGPR119) (Homo sapiens, UniProt Q8TDV5).
T1 construct: expressed in transfected cells
T1 sequence (Q8TDV5 1-335): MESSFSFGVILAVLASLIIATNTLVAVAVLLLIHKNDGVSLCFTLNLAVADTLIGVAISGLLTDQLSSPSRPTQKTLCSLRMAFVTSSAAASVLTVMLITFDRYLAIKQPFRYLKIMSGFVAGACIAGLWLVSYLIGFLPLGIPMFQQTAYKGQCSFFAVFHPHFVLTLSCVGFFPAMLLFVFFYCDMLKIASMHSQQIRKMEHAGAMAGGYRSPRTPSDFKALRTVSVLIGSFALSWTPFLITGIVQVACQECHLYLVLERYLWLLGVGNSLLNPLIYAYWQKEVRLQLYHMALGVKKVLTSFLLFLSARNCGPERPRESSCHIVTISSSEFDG
Description: cAMP accumulation assay (Cisbio cAMP Gs dynamic HTRF kit) in CHO-K1 cells stably expressing human GPR119. The class given is cell-based. To be noted: 4-parameter fit; for Emax: 1 h, % activity normalized to Max and Min controls; for EC50: 60 minutes at 37° C. The method in brief:
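Read-out is HTRF 665/620 nm ratio after 1 h detection at ambient temperature, converted to % activity against positive and negative controls, EC50 and Max activity by 4-parameter fit. Compounds were titrated onto ~10,000 thawed hGPR119-CHO-K1 cells/well for 60 min at 37° C/5% CO2.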

Molecules are shown by their SMILES.

`O=C(Cc1ccc(OCCCC2CC23CCN(c2ncc(Cl)cn2)CC3)cc1F)N1CCN(C[C@H](O)[C@@H](O)[C@H](O)[C@H](O)CO)CC1` (stereo partly drawn) [Example 109, 2-(4-(3-(6-(5-chloropyrimidin-2-yl)-6-azaspiro[2.5]octan-1-yl)propoxy)-2-fluorophenyl)-1-(4-((2S,3R,4R,5R)-2,3,4,5,6-pentahydroxyhexyl)piperazin-1-yl)ethan-1-one] had an Emax of 100 to 130% and an EC50 of 100 to 1000 nM.

`O=C(Cc1ccc(OCCC2CC3(CCN(c4ncc(Cl)cn4)CC3)C2)cc1F)N1CCN(C[C@H](O)[C@@H](O)[C@H](O)[C@H](O)CO)CC1` [Example 110, 2-(4-(2-(7-(5-chloropyrimidin-2-yl)-7-azaspiro[3.5]nonan-2-yl)ethoxy)-2-fluorophenyl)-1-(4-((2S,3R,4R,5R)-2,3,4,5,6-pentahydroxyhexyl)piperazin-1-yl)ethan-1-one]: the Emax was 100 to 130% and the EC50 is 100 to 1000 nM.

For the compound `O=C(Cc1ccc(OCCCC2CC3(CCN(c4ncc(Cl)cn4)CC3)C2)cc1F)N1CCN(C[C@H](O)[C@@H](O)[C@H](O)[C@H](O)CO)CC1` [Example 111, 2-(4-(3-(7-(5-chloropyrimidin-2-yl)-7-azaspiro[3.5]nonan-2-yl)propoxy)-2-fluorophenyl)-1-(4-((2S,3R,4R,5R)-2,3,4,5,6-pentahydroxyhexyl)piperazin-1-yl)ethan-1-one], the Emax lay in the range of 100 to 130% and the EC50 is not above 100 nM.

In turn, `O=C(Cc1ccc(OCCCCC2CC3(CCN(c4ncc(Cl)cn4)CC3)C2)cc1F)N1CCN(C[C@H](O)[C@@H](O)[C@H](O)[C@H](O)CO)CC1` [Example 112, 2-(4-(4-(7-(5-chloropyrimidin-2-yl)-7-azaspiro[3.5]nonan-2-yl)butoxy)-2-fluorophenyl)-1-(4-((2S,3R,4R,5R)-2,3,4,5,6-pentahydroxyhexyl)piperazin-1-yl)ethan-1-one] came in with an Emax of 100 to 130% and an EC50 of 100 to 1000 nM.

In the case of `O=C(Cc1ccc(OCCC2CCC23CCN(c2ncc(Cl)cn2)CC3)cc1F)N1CCN(C[C@H](O)[C@@H](O)[C@H](O)[C@H](O)CO)CC1` (stereo partly drawn) [Example 113, 2-(4-(2-(7-(5-chloropyrimidin-2-yl)-7-azaspiro[3.5]nonan-1-yl)ethoxy)-2-fluorophenyl)-1-(4-((2S,3R,4R,5R)-2,3,4,5,6-pentahydroxyhexyl)piperazin-1-yl)ethan-1-one], the Emax is 50 to 100% and the EC50 was more than 10000 nM.

`O=C(Cc1ccc(OCC2CC(C3CCN(c4ncc(Cl)cn4)CC3)C2)cc1F)N1CCN(C[C@H](O)[C@@H](O)[C@H](O)[C@H](O)CO)CC1` (stereo partly drawn) [Example 114, 2-(4-((3-(1-(5-chloropyrimidin-2-yl)piperidin-4-yl)cyclobutyl)methoxy)-2-fluorophenyl)-1-(4-((2S,3R,4R,5R)-2,3,4,5,6-pentahydroxyhexyl)piperazin-1-yl)ethan-1-one] gave an Emax of 100 to 130% and an EC50 not above 100 nM.

The compound `O=C(Cc1ccc(OCCC2CC(C3CCN(c4ncc(Cl)cn4)CC3)C2)cc1F)N1CCN(C[C@H](O)[C@@H](O)[C@H](O)[C@H](O)CO)CC1` (stereo partly drawn) [Example 115, 2-(4-(2-(3-(1-(5-chloropyrimidin-2-yl)piperidin-4-yl)cyclobutyl)ethoxy)-2-fluorophenyl)-1-(4-((2S,3R,4R,5R)-2,3,4,5,6-pentahydroxyhexyl)piperazin-1-yl)ethan-1-one] registered an Emax of 100 to 130% and an EC50 of 100 to 1000 nM.
